Assay results taken from patent US9693997B2, “Antiviral compounds” (priority 2013, dated 2017).
Where a name gives a salt, the structure may show the parent alone. Read-outs that look alike come from different tables or passages of the source.

Assays:
[1] = test system: Pseudotyped HCV GT1b particles (HCVpp), entry into Huh7-high CD81 cells; assay: microbe, parasite or virus in culture; format: cell-based, HCV GT1b Con1 strain
[2] = test system: pseudotyped VSV G particles (VSVpp) in Huh7-high CD81 cells; assay: microbe, parasite or virus in culture; format: cell-based, vesicular stomatitis virus; details: Vesicular stomatitis virus, 72 h, read-out: VSVpp (EC50, μM)
[3] = Hepatitis C virus, GT1B, 72 h, read-out: HCVpp GT-1b (EC50, μM)

Row | SMILES | EC50 [1, 3] [µM] | EC50 [2] [µM] | EC50 ([1]; read-out: HCVpp GT-1b (EC50)) [µM]
1 | Nc1nc(Nc2cc(Cl)c(-c3ccc(S(=O)(=O)C[C@@H]4CCCN4)cc3)c(C(F)(F)F)c2)n[nH]1 [Compound 35, N*3*-[2-Chloro-4′-((S)-1-pyrrolidin-2-ylmethanesulfonyl)-6-trifluoromethyl-biphenyl-4-yl]-1H-[1,2,4]triazole-3,5-diamine; hydrochloride] | 0.127 | 4.79 | 
2 | COc1ccc(-c2c(Cl)cc(Nc3n[nH]c(N)n3)cc2C(F)(F)F)cc1S(=O)(=O)N[C@H]1CC[C@H](O)CC1 [Compound 190, 4′-(5-amino-1H-1,2,4-triazol-3-ylamino)-2′-chloro-N-(trans-4-hydroxycyclohexyl)-4-methoxy-6′-(trifluoromethyl)biphenyl-3-sulfonamide] | 0.046 | 56.1 | 
3 | COC(=O)c1ccc(-c2c(Cl)cc(Nc3n[nH]c(N)n3)cc2Cl)cc1 [Compound 110, 4′-(5-Amino-1H-[1,2,4]triazol-3-ylamino)-2′,6′-dichloro-biphenyl-4-carboxylic acid methyl ester] | 0.1 | 25 | 
4 | CC(C)(C)OC(=O)N1CCN(S(=O)(=O)c2ccc(-c3c(Cl)cc(Nc4n[nH]c(N)n4)cc3C(F)(F)F)cc2)CC1 [Compound 16, 4-[4′-(5-Amino-1H-[1,2,4]triazol-3-ylamino)-2′-chloro-6′-trifluoromethyl-biphenyl-4-sulfonyl]-piperazine-1-carboxylic acid tert-butyl ester] | 0.03 | > 10 | 
5 | Nc1nc(Nc2cc(Cl)c(-c3ccc(S(=O)(=O)N4CCC(F)(F)C4)cc3)c(C(F)(F)F)c2)n[nH]1 [Compound 62, N*3*-[6-Chloro-4′-(3,3-difluoro-pyrrolidine-1-sulfonyl)-2-trifluoromethyl-biphenyl-4-yl]-1H-[1,2,4]triazole-3,5-diamine] | 0.02 | > 10 | 
6 | CNC(=O)c1ccc(-c2c(Cl)cc(Nc3n[nH]c(N)n3)cc2C(F)(F)F)cc1F [Compound 291, 4′-(5-amino-1H-1,2,4-triazol-3-ylamino)-2′-chloro-3-fluoro-N-methyl-6′-(trifluoromethyl)biphenyl-4-carboxamide] | 0.325 | 21.5 | 
7 | COc1cc(-c2c(Cl)cc(Nc3n[nH]c(N)n3)cc2C(F)(F)F)ccc1S(=O)(=O)NC1CCN(C(=O)OC(C)(C)C)CC1 [Compound 163, tert-butyl 4-(4′-(5-amino-1H-1,2,4-triazol-3-ylamino)-2′-chloro-3-methoxy-6′-(trifluoromethyl)biphenyl-4-ylsulfonamido)piperidine-1-carboxylate] | 0.005 | > 10 | 
8 | Nc1nc(Nc2cc(Cl)c(-c3ccc(S(=O)(=O)N4CCC(O)CC4)cc3)c(C(F)(F)F)c2)n[nH]1 [Compound 194, 1-(4′-(5-amino-1H-1,2,4-triazol-3-ylamino)-2′-chloro-6′-(trifluoromethyl)biphenyl-4-ylsulfonyl)piperidin-4-ol] | 0.115 | 22.8 | 
9 | CC1(NS(=O)(=O)c2ccc(-c3c(Cl)cc(Nc4n[nH]c(N)n4)cc3C(F)(F)F)cc2)CN(C(=O)OC(C)(C)C)C1 [Compound 205, tert-butyl 3-(4′-(5-amino-1H-1,2,4-triazol-3-ylamino)-2′-chloro-6′-(trifluoromethyl)biphenyl-4-ylsulfonamido)-3-methylazetidine-1-carboxylate] | 0.011 | 9.26 | 
10 | Nc1nc(Nc2cc(Cl)c(-c3ccc4[nH]ncc4c3)c(Cl)c2)n[nH]1 [Compound 257, N-3-[3′,5′-dichlorophenyl-4′-(1H-indazol-5-yl)-phenyl]-1H-[1,2,4]triazole-3,5-diamine] | 0.343 | 2.73 | 
11 | CC(C)(C)OC(=O)N1CCC(CS(=O)(=O)c2ccc(-c3c(Cl)cc(Nc4n[nH]c(N)n4)cc3C(F)(F)F)cc2)CC1 [Compound 7, 4-[4′-(5-Amino-1H-[1,2,4]triazol-3-ylamino)-2′-chloro-6′-trifluoromethyl-biphenyl-4-sulfonylmethyl]-piperidine-1-carboxylic acid tert-butyl ester] | 0.017 | 3.09 | 
12 | CS(=O)(=O)Nc1ccc(-c2c(Cl)cc(Nc3n[nH]c(N)n3)cc2Cl)cc1F [Compound 46, N-[4′-(5-Amino-1H-[1,2,4]triazol-3-ylamino)-2′,6′-dichloro-3-fluoro-biphenyl-4-yl]-methanesulfonamide] | 0.414 | > 10 | 
13 | CC(C)S(=O)(=O)c1ccc(-c2c(Cl)cc(Nc3n[nH]c(N)n3)cc2C(F)(F)F)cc1 [Compound 228, N*3*-[6-Chloro-4′-(propane-2-sulfonyl)-2-trifluoromethyl-biphenyl-4-yl]-1H-[1,2,4]triazole-3,5-diamine] |  | 7.52 | 0.042
14 | CCCCC(=O)Nc1ccc(-c2c(Cl)cc(Nc3n[nH]c(N)n3)cc2Cl)cc1 [Compound 9, Pentanoic acid [4′-(5-amino-1H-[1,2,4]triazol-3-ylamino)-2′,6′-dichloro-biphenyl-4-yl]-amide] | 0.014 | 5.05 | 
15 | Nc1nc(Nc2ccc(-c3ccccc3)c(C(F)(F)F)c2)n[nH]1 [Compound 149, N*3*-(2-Trifluoromethyl-biphenyl-4-yl)-1H-[1,2,4]triazole-3,5-diamine] | 0.581 | 29.2 | 
16 | Nc1nc(Nc2cc(Cl)c(-c3ccc(S(=O)(=O)C4CCCNC4)cc3)c(C(F)(F)F)c2)n[nH]1 (stereo not drawn) [Compound 29, N*3*-[2-Chloro-4′-(piperidine-3-sulfonyl)-6-trifluoromethyl-biphenyl-4-yl]-1H-[1,2,4]triazole-3,5-diamine; hydrochloride] | 0.09 | 3.53 | 
17 | Nc1nc(Nc2cc(Cl)c(-c3ccc(S(=O)(=O)NCCO)cc3)c(Cl)c2)n[nH]1 [Compound 160, 4′-(5-Amino-1H-[1,2,4]triazol-3-ylamino)-2′,6′-dichloro-biphenyl-4-sulfonic acid (2-hydroxy-ethyl)-amide] | 0.063 | 10.6 | 
18 | Nc1nc(Nc2cc(Cl)c(-c3ccc(S(=O)(=O)C4CCCN(CCC(F)(F)F)C4)cc3)c(C(F)(F)F)c2)n[nH]1 (stereo not drawn) [Compound 11, N*3*-{2-Chloro-6-trifluoromethyl-4′-[1-(3,3,3-trifluoro-propyl)-piperidine-3-sulfonyl]-biphenyl-4-yl}-1H-[1,2,4]triazole-3,5-diamine; hydrochloride] | 0.017 | 6.78 | 
19 | CC(C)(C)OC(=O)c1ccc(-c2c(Cl)cc(Nc3n[nH]c(N)n3)cc2C(F)(F)F)cc1 [Compound 200, tert-butyl 4′-(5-amino-1H-1,2,4-triazol-3-ylamino)-2′-chloro-6′-(trifluoromethyl)biphenyl-4-carboxylate] | 0.574 | > 10 | 
20 | CN(C)S(=O)(=O)c1cccc(-c2c(Cl)cc(Nc3n[nH]c(N)n3)cc2C(F)(F)F)c1 [Compound 198, 4′-(5-amino-1H-1,2,4-triazol-3-ylamino)-2′-chloro-N,N-dimethyl-6′-(trifluoromethyl)biphenyl-3-sulfonamide] | 0.268 | 21.3 | 
21 | COc1ccc(-c2c(Cl)cc(Nc3n[nH]c(N)n3)cc2C(F)(F)F)cc1OC(C)C [Compound 229, N*3*-(6-Chloro-3′-isopropoxy-4′-methoxy-2-trifluoromethyl-biphenyl-4-yl)-1H-[1,2,4]triazole-3,5-diamine] | 0.072 | 6.47 | 
